# Measurements: patent US20250376472A1, “3-(PHENYLSULFONYL)-[1,2,3]TRIAZOLO[1,5A]QUINAZOLIN-5(4H)-ONE DERIVATIVES” (priority 2022, published 2025)
# Biological target: T1, AgrA (Staphylococcus aureus, UniProt P0A0I7)
# T1 construct: endogenous in cells; host or cells: S. aureus USA300 strain UAMS-1625 carrying a P3-lacZ reporter plasmid
# Test: cell-based
# Design: species or system S. aureus
# Details: for Ratio IC50 (in presence of HSA)/IC50 (in absence of HSA): 40 mg/mL HSA versus no HSA
# Protocol: The inventive compounds are 3-(phenylsulfonyl)-[1,2,3]triazolo[1,5a]quinazolin-5(4h)-one derivatives comprising an N-bound piperazine or homopiperazine at the 8-position of the [1,2,3]triazolo[1,5a]quinazolin-5(4h)-one core, further substituted (on the second nitrogen atom) by an (optionally substituted) acetyl or propionyl amide group. […] Specifically, the reporter gene lacZ (which encodes the protein product β-galactosidase) was transfected into S. aureus with a plasmid under control of the P3 promoter. The compounds were serially diluted in lysogeny broth (LB), and incubated with S. aureus. Following incubation, the S. aureus cells were lysed and treated with 4-methylumbelliferyl-galactopyranoside (MUG). The β-galactosidase produced by expression of lacZ cleaved the MUG into galactopyranose and 4-methylumbelliferone, which was measured by fluorescence.
# The resulting reporter strain was used to measure AgrA inhibitory activity as follows. From an overnight culture plate, cells were resuspended in 0.9% (w/v) saline solution and bacterial inoculum was prepared in LB medium with 5×10^5 CFU/ml. Compounds were two-fold serially diluted in LB and 50 μL of this 10× concentrated samples were added into the 96-deep well plate. 500 μL of bacterial suspension was finally added to the compounds or DMSO control. Plates were covered and incubated with shaking at 37° C. After 18 hours incubation, 100 μL was transferred to a new clear 96-well plate and the OD600 was measured using a TECAN Infinite F200 microplate reader to control for growth inhibition. Another 100 μL was transferred to a new black 96-well plate containing 30 μL of lysis buffer (20 mM Tris/HCl, 3 mM MgCl2, 0.5% Tween 20 (v/v), 0.5% NP-40 (v/v)) and the plate was incubated with shaking at 37° C. for 60 min. 20 μL of the substrate MUG (4-Methylumbelliferyl O-D-galactopyranoside) at 0.25 mg/ml was added and the fluorescence (excitation: 360 nm, emission: 450 mu) was measured with a TECAN Infinite F200 microplate reader after 3 hours incubation at 37° C. with shaking. The IC50 was determined using GraphPad PRISM after normalization to DMSO control.
# [1] = LB medium supplemented with human serum albumin 40 mg/mL
# [2] = LB medium, no human serum albumin, 18 hours incubation
# [3] = IC50 at 40 mg/mL HSA, LB medium supplemented with human serum albumin 40 mg/mL
# [4] = IC50 without HSA, LB medium, no human serum albumin, 18 hours incubation
# T1 sequence (P0A0I7 whole entry): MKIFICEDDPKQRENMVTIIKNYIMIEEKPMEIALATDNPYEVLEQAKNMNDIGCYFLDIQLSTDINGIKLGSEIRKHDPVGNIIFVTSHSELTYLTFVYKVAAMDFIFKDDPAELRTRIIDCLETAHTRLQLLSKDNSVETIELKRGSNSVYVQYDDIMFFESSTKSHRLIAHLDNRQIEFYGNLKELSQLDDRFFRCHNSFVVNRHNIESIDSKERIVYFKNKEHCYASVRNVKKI
SMILES,Ratio IC50 (in presence of HSA)/IC50 (in absence of HSA),IC50 at 40 mg/mL HSA [1],IC50 without HSA [2],IC50 [3] [µM],IC50 [4] [µM]
Cc1ccc(S(=O)(=O)c2nnn3c2[nH]c(=O)c2ccc(N4CCN(CC(=O)N5CCCC5CO)CC4)cc23)c(C)c1 (centres unmarked) [Compound 76],+++ (+++: ratio ≤ 25),++ (++: 10 μg/mL < IC50 ≤ 50 μg/mL),++ (++: 1 μg/mL < IC50 ≤ 5 μg/mL),–,–
Cc1ccc(S(=O)(=O)c2nnn3c2[nH]c(=O)c2ccc(N4CCCN(CC(=O)N5CCCC5)CC4)cc23)c(C)c1 [Compound 83],+++ (+++: ratio ≤ 25),+++ (+++: IC50 ≤ 10 μg/mL),++ (++: 1 μg/mL < IC50 ≤ 5 μg/mL),–,–
Cc1ccc(S(=O)(=O)c2nnn3c2[nH]c(=O)c2ccc(N4CCCN(CC(=O)N5CCOCC5)CC4)cc23)c(C)c1 [Compound 84],+++ (+++: ratio ≤ 25),+++ (+++: IC50 ≤ 10 μg/mL),++ (++: 1 μg/mL < IC50 ≤ 5 μg/mL),–,–
Cc1ccc(S(=O)(=O)c2nnn3c2[nH]c(=O)c2ccc(N4CCCN(CC(=O)N5CCCCC5)CC4)cc23)c(C)c1 [Compound 85],–,–,–,17.3 to 86.5,1.73 to 8.65
Cc1ccc(S(=O)(=O)c2nnn3c2[nH]c(=O)c2ccc(N4CCN(CC(=O)NC5CCN(C)CC5)CC4)cc23)c(C)c1 [Compound 86],–,–,–,16.9 to 84.4,1.69 to 8.44
Cc1ccc(S(=O)(=O)c2nnn3c2[nH]c(=O)c2ccc(N4CCN(CC(=O)NC5CCOCC5)CC4)cc23)c(C)c1 [Compound 87],+++ (+++: ratio ≤ 25),+++ (+++: IC50 ≤ 10 μg/mL),+++ (+++: IC50 ≤ 1 μg/mL),–,–
Cc1ccc(S(=O)(=O)c2nnn3c2[nH]c(=O)c2ccc(N4CCN(CC(=O)NCC5CCN(C)CC5)CC4)cc23)c(C)c1 [Compound 88],–,–,–,16.5 to 82.4,1.65 to 8.24
Cc1ccc(S(=O)(=O)c2nnn3c2[nH]c(=O)c2ccc(N4CCN(CC(=O)NCCN5CCN(C)CC5)CC4)cc23)c(C)c1 [Compound 89],–,–,–,16.1 to 80.4,1.61 to 8.04
Cc1ccc(S(=O)(=O)c2nnn3c2[nH]c(=O)c2ccc(N4CCN(CC(=O)NCCN5CCCCC5)CC4)cc23)c(C)c1 [Compound 90],–,–,–,16.5 to 82.4,1.65 to 8.24
Cc1ccc(S(=O)(=O)c2nnn3c2[nH]c(=O)c2ccc(N4CCN(CC(=O)NCCN5CCOCC5)CC4)cc23)c(C)c1 [Compound 91],–,–,–,16.4 to 82.1,1.64 to 8.21
Cc1ccc(S(=O)(=O)c2nnn3c2[nH]c(=O)c2ccc(N4CCN(CC(=O)NCCCN5CCOCC5)CC4)cc23)c(C)c1 [Compound 92],–,–,–,16.1 to 80.3,1.61 to 8.03
CCN1CCCC1CNC(=O)CN1CCN(c2ccc3c(=O)[nH]c4c(S(=O)(=O)c5ccc(C)cc5C)nnn4c3c2)CC1 (centres unmarked) [Compound 93],–,–,–,< 16.5,1.65 to 8.24
Cc1ccc(S(=O)(=O)c2nnn3c2[nH]c(=O)c2ccc(N4CCN(CC(=O)NCCN5CCCC5)CC4)cc23)c(C)c1 [Compound 94],–,–,–,16.9 to 84.4,1.69 to 8.44
Cc1ccc(S(=O)(=O)c2nnn3c2[nH]c(=O)c2ccc(N4CCN(CC(=O)NCCC5CCCN5C)CC4)cc23)c(C)c1 (centres unmarked) [Compound 95],+++ (+++: ratio ≤ 25),++ (++: 10 μg/mL < IC50 ≤ 50 μg/mL),++ (++: 1 μg/mL < IC50 ≤ 5 μg/mL),–,–
Cc1ccc(S(=O)(=O)c2nnn3c2[nH]c(=O)c2ccc(N4CCN(CC(=O)NCC5CCCO5)CC4)cc23)c(C)c1 (centres unmarked) [Compound 96],–,–,–,17.3 to 86.3,< 1.73
Cc1ccc(S(=O)(=O)c2nnn3c2[nH]c(=O)c2ccc(N4CCN(CC(=O)NCCCN5CCCC5=O)CC4)cc23)c(C)c1 [Compound 97],–,–,–,16.1 to 80.5,1.61 to 8.05
Cc1ccc(S(=O)(=O)c2nnn3c2[nH]c(=O)c2ccc(N4CCCN(CC(=O)NC5CCN(C)CC5)CC4)cc23)c(C)c1 [Compound 102],+++ (+++: ratio ≤ 25),++ (++: 10 μg/mL < IC50 ≤ 50 μg/mL),++ (++: 1 μg/mL < IC50 ≤ 5 μg/mL),–,–
Cc1ccc(S(=O)(=O)c2nnn3c2[nH]c(=O)c2ccc(N4CCCN(CC(=O)NC5CCOCC5)CC4)cc23)c(C)c1 [Compound 103],–,–,–,< 16.8,1.68 to 8.42
Cc1ccc(S(=O)(=O)c2nnn3c2[nH]c(=O)c2ccc(N4CCN(CC(=O)Nc5ccccc5)CC4)cc23)c(C)c1 [Compound 104],–,–,–,17.5 to 87.5,< 1.75
Cc1ccc(S(=O)(=O)c2nnn3c2[nH]c(=O)c2ccc(N4CCN(CC(=O)NCc5ccccc5)CC4)cc23)c(C)c1 [Compound 106],–,–,–,17.1 to 85.4,< 1.71
Cc1ccc(S(=O)(=O)c2nnn3c2[nH]c(=O)c2ccc(N4CCN(CC(=O)NCc5cccc(O)c5)CC4)cc23)c(C)c1 [Compound 108],–,–,–,16.6 to 83.1,< 1.66

SMILES,Ratio IC50 (in presence of HSA)/IC50 (in absence of HSA),IC50 at 40 mg/mL HSA [1],IC50 without HSA [2],IC50 [3] [µM],IC50 [4] [µM]
Cc1ccc(S(=O)(=O)c2nnn3c2[nH]c(=O)c2ccc(N4CCN(CC(=O)NCCc5ccccc5)CC4)cc23)c(C)c1 [Compound 109],–,–,–,16.7 to 83.4,< 1.67
Cc1ccc(S(=O)(=O)c2nnn3c2[nH]c(=O)c2ccc(N4CCN(CC(=O)NCc5cccnc5)CC4)cc23)c(C)c1 [Compound 111],–,–,–,17 to 85.2,< 1.7
Cc1ccc(S(=O)(=O)c2nnn3c2[nH]c(=O)c2ccc(N4CCN(CC(=O)NCc5ccco5)CC4)cc23)c(C)c1 [Compound 113],–,–,–,17.4 to 86.9,< 1.74
Cc1ccc(S(=O)(=O)c2nnn3c2[nH]c(=O)c2ccc(N4CCN(CC(=O)NCc5cocn5)CC4)cc23)c(C)c1 [Compound 114],–,–,–,17.3 to 86.7,< 1.73
Cc1ccc(S(=O)(=O)c2nnn3c2[nH]c(=O)c2ccc(N4CCN(CC(=O)NCCn5cccc5)CC4)cc23)c(C)c1 [Compound 115],–,–,–,17 to 84.9,< 1.7
Cc1ccc(S(=O)(=O)c2nnn3c2[nH]c(=O)c2ccc(N4CCN(CC(=O)NCCc5cccs5)CC4)cc23)c(C)c1 [Compound 116],–,–,–,16.5 to 82.5,< 1.65
Cc1ccc(S(=O)(=O)c2nnn3c2[nH]c(=O)c2ccc(N4CCN(CC(=O)NCCn5ccnc5)CC4)cc23)c(C)c1 [Compound 117],–,–,–,17 to 84.8,1.7 to 8.48
Cc1ccc(S(=O)(=O)c2nnn3c2[nH]c(=O)c2ccc(N4CCCN(CC(=O)Nc5ccccc5)CC4)cc23)c(C)c1 [Compound 122],–,–,–,17.1 to 85.4,< 1.71
Cc1ccc(S(=O)(=O)c2nnn3c2[nH]c(=O)c2ccc(N4CCCN(CC(=O)NCc5ccccc5)CC4)cc23)c(C)c1 [Compound 123],–,–,–,16.7 to 83.4,< 1.67
Cc1ccc(S(=O)(=O)c2nnn3c2[nH]c(=O)c2ccc(N4CCN(CC(=O)N5CCC6(CCCC6)C5)CC4)cc23)c(C)c1 [Compound 126],–,–,–,16.6 to 82.8,< 1.66
Cc1ccc(S(=O)(=O)c2nnn3c2[nH]c(=O)c2ccc(N4CCN(CC(=O)N5CCC6(CCN(C)CC6)CC5)CC4)cc23)c(C)c1 [Compound 127],–,–,–,15.5 to 77.3,< 1.55
Cc1ccc(S(=O)(=O)c2nnn3c2[nH]c(=O)c2ccc(N4CCN(CC(=O)N5CCCC6(CCN(C)CC6)C5)CC4)cc23)c(C)c1 [Compound 128],–,–,–,15.5 to 77.3,1.55 to 7.73
Cc1ccc(S(=O)(=O)c2nnn3c2[nH]c(=O)c2ccc(N4CCN(CC(=O)N5CCN6CCOCC6C5)CC4)cc23)c(C)c1 (centres unmarked) [Compound 129],+++ (+++: ratio ≤ 25),+++ (+++: IC50 ≤ 10 μg/mL),+++ (+++: IC50 ≤ 1 μg/mL),–,–
Cc1ccc(S(=O)(=O)c2nnn3c2[nH]c(=O)c2ccc(N4CCN(CC(=O)N5CCN6CCCC6C5)CC4)cc23)c(C)c1 (centres unmarked) [Compound 130],–,–,–,< 16.5,< 1.65
Cc1ccc(S(=O)(=O)c2nnn3c2[nH]c(=O)c2ccc(N4CCN(CC(=O)NCCN)CC4)cc23)c(C)c1 [Compound 131],–,–,–,18.6 to 92.8,1.86 to 9.28
Cc1ccc(S(=O)(=O)c2nnn3c2[nH]c(=O)c2ccc(N4CCN(CC(=O)N5CCNCC5)CC4)cc23)c(C)c1 [Compound 134],–,–,–,< 17.7,1.77 to 8.85
Cc1ccc(S(=O)(=O)c2nnn3c2[nH]c(=O)c2ccc(N4CCN(CC(=O)N5CCC(N)C5)CC4)cc23)c(C)c1 (centres unmarked) [Compound 135],–,–,–,17.7 to 88.5,1.77 to 8.85
Cc1ccc(S(=O)(=O)c2nnn3c2[nH]c(=O)c2ccc(N4CCN(CC(=O)NC5CCNC5)CC4)cc23)c(C)c1 (centres unmarked) [Compound 136],–,–,–,17.7 to 88.5,1.77 to 8.85
Cc1ccc(S(=O)(=O)c2nnn3c2[nH]c(=O)c2ccc(N4CCN(CC(=O)N5CCC(CN)C5)CC4)cc23)c(C)c1 (centres unmarked) [Compound 137],–,–,–,17.3 to 86.4,1.73 to 8.64
Cc1ccc(S(=O)(=O)c2nnn3c2[nH]c(=O)c2ccc(N4CCN(CC(=O)NC5CNC5)CC4)cc23)c(C)c1 [Compound 138],–,–,–,18.2 to 90.8,1.82 to 9.08
